Experimental data published in DBAASP.
≈ marks a conversion by molar mass, not a printed value. Where “and” joins values, the source holds several entries; their conditions need not be identical. Equal values may be shown once.

Assays:
Test in all cases: ≥ marks a high value that may be exact or a test limit, other limits are often not marked, values filed in µg/mL are converted to µM
[1] = system: Bacillus megaterium ATCC 10778
[2] = system: Bacillus subtilis ATCC 6633
[3] = system: Candida albicans MDM8
[4] = system: Candida tropicalis IOC 4560
[5] = system: Enterobacter cloacae beta-12
[6] = system: Escherichia coli SBS 363
[7] = system: Micrococcus luteus A270
[8] = system: Pseudomonas aeruginosa ATCC 27853
[9] = system: Serratia marcescens ATCC 4112
[10] = system: Staphylococcus aureus ATCC 29213
[11] = system: Aspergillus flavus KCTC 6905
[12] = system: Aspergillus fumigatus KCTC 6145
[13] = system: Candida albicans KCTC 7270
[14] = system: Candida krusei CCARM 14017
[15] = system: Candida parapsilosis CCARM 14016
[16] = system: Candida tropicalis KCTC 7221
[17] = system: Fusarium verticillioides KCTC 6149
[18] = system: Trichosporon beigelii KCTC 7707
[19] = system: Candida albicans CGMCC 2.2086
[20] = system: Candida parapsilosis CGMCC 2.3989
[21] = system: Candida tropicalis CGMCC 2.1975
[22] = system: Escherichia coli 078
[23] = system: Escherichia coli 987P
[24] = system: Escherichia coli ATCC 25922
[25] = system: Escherichia coli K88
[26] = system: Escherichia coli K99
[27] = system: Escherichia coli UB1005
[28] = system: Lacticaseibacillus rhamnosus 7469
[29] = system: Lactiplantibacillus plantarum 8014
[30] = system: Pseudomonas aeruginosa PAO1
[31] = system: Salmonella enterica subsp. enterica serovar Typhimurium ATCC 14028
[32] = system: Salmonella enterica subsp. enterica serovar Typhimurium C77-31
[33] = system: Staphylococcus aureus ATCC 25923
[34] = system: Staphylococcus epidermidis ATCC 12228
[35] = system: Escherichia coli W3110
[36] = system: Klebsiella pneumoniae ATCC BAA-1705

SMILES: CC(C)C[C@H](NC(=O)[C@H](C)NC(=O)CNC(=O)[C@H](CC(C)C)NC(=O)[C@@H](N)Cc1ccccc1)C(=O)N[C@@H](Cc1c[nH]c2ccccc12)C(=O)N[C@@H](CC(N)=O)C(=O)N[C@H](C(=O)N[C@@H](Cc1ccccc1)C(=O)N[C@@H](CCCCN)C(=O)N[C@@H](CO)C(=O)N[C@H](C(=O)N[C@@H](Cc1ccccc1)C(N)=O)C(C)C)C(C)C [FLGALWNVFKSVF]
- MIC [1]: 1.6 µM (≈ 2.44 µg/mL)
- MIC [2]: 0.8 µM (≈ 1.22 µg/mL)
- MIC [3]: 6.3 µM (≈ 9.62 µg/mL)
- MIC [4]: 1.6 µM (≈ 2.44 µg/mL)
- MIC [5]: ≥ 50 µM
- MIC [6]: 3.1 µM (≈ 4.73 µg/mL)
- MIC [7]: 0.8 µM (≈ 1.22 µg/mL)
- MIC [8]: > 50 µM
- MIC [9]: 0.4 µM (≈ 0.611 µg/mL)
- MIC [10]: 0.8 µM (≈ 1.22 µg/mL)

SMILES: CC[C@H](C)[C@H](NC(=O)CNC(=O)[C@H](CCC(N)=O)NC(=O)[C@H](C)NC(=O)[C@@H](NC(=O)[C@H](CCCCN)NC(=O)[C@H](CCCCN)NC(=O)[C@H](CC(C)C)NC(=O)[C@H](C)NC(=O)[C@H](CC(N)=O)NC(=O)[C@H](CC(C)C)NC(=O)CN)C(C)C)C(=O)N[C@@H](Cc1cnc[nH]1)C(=O)N[C@@H](CCC(=O)O)C(=O)N[C@@H](C)C(=O)N[C@@H](C)C(=O)N[C@@H](CCCCN)C(=O)N[C@@H](CC(C)C)C(=O)N[C@H](C(=O)N[C@@H](CC(N)=O)C(=O)N[C@@H](CC(N)=O)C(=O)N[C@@H](Cc1cnc[nH]1)C(=O)N[C@H](C(=O)N[C@@H](CCC(N)=O)C(N)=O)C(C)C)[C@@H](C)CC [GLNALKKVAQGIHEAAKLINNHVQ]
- MIC [11]: ≥ 32 µM and 16 µM
- MIC [12]: ≥ 32 µM and 16 µM
- MIC [13]: 4 µM and 8 µM
- MIC [14]: 6 µM and 8 µM
- MIC [15]: ≥ 64 µM
- MIC [16]: 2 µM and 1 µM
- MIC [17]: ≥ 32 µM
- MIC [18]: 1.5 µM and 1 µM

SMILES: CC[C@H](C)[C@H](NC(=O)[C@H](C)NC(=O)[C@H](CCC(=O)O)NC(=O)[C@H](Cc1cnc[nH]1)NC(=O)[C@H](C)NC(=O)CNC(=O)[C@H](CCC(N)=O)NC(=O)[C@H](Cc1ccccc1)NC(=O)[C@@H](NC(=O)[C@H](CCCCN)NC(=O)[C@H](CCCCN)NC(=O)[C@H](CC(C)C)NC(=O)[C@H](C)NC(=O)[C@H](CC(N)=O)NC(=O)[C@H](CC(C)C)NC(=O)CN)C(C)C)C(=O)N[C@@H](CCCCN)C(=O)N[C@@H](CC(C)C)C(=O)N[C@@H](C)C(=O)N[C@@H](CC(N)=O)C(=O)N[C@@H](CC(N)=O)C(=O)N[C@@H](Cc1cnc[nH]1)C(=O)N[C@H](C(=O)N[C@@H](CCC(N)=O)C(N)=O)C(C)C [GLNALKKVFQGAHEAIKLANNHVQ]
- MIC [11]: ≥ 64 µM
- MIC [13]: 8 µM and 16 µM
- MIC [14]: 8 µM (≈ 20.8 µg/mL)
- MIC [15]: ≥ 64 µM
- MIC [16]: 2 µM (≈ 5.2 µg/mL)
- MIC [17]: ≥ 64 µM
- MIC [18]: 6 µM and 2 µM

SMILES: CC[C@H](C)[C@H](N)C(=O)N[C@@H](Cc1cnc[nH]1)C(=O)N[C@@H](Cc1cnc[nH]1)C(=O)N[C@H](C(=O)N[C@@H](Cc1cnc[nH]1)C(=O)N[C@@H](Cc1cnc[nH]1)C(=O)N[C@@H](Cc1cnc[nH]1)C(N)=O)[C@@H](C)CC [IHHIHHH]
- MIC [19]: ≥ 64 µM
- MIC [20]: ≥ 64 µM
- MIC [21]: ≥ 64 µM
- MIC [22]: ≥ 64 µM
- MIC [23]: ≥ 64 µM
- MIC [24]: > 64 µM
- MIC [25]: ≥ 64 µM
- MIC [26]: ≥ 64 µM
- MIC [27]: ≥ 64 µM
- MIC [28]: ≥ 64 µM
- MIC [29]: ≥ 64 µM
- MIC [8]: > 64 µM
- MIC [30]: > 64 µM
- MIC [31]: > 64 µM
- MIC [32]: ≥ 64 µM
- MIC [33]: 64 µM (≈ 59.5 µg/mL)
- MIC [10]: > 64 µM
- MIC [34]: > 64 µM

SMILES: CC[C@H](C)[C@H](N)C(=O)N[C@@H](Cc1c[nH]c2ccccc12)C(=O)N[C@@H](Cc1c[nH]c2ccccc12)C(=O)N[C@@H](C)C(=O)N[C@@H](CCCCN)C(=O)N[C@@H](Cc1c[nH]c2ccccc12)C(=O)NCC(=O)N[C@@H](CC(C)C)C(=O)N[C@@H](CCCCN)C(=O)N[C@@H](CC(C)C)C(=O)N[C@@H](CC(C)C)C(=O)N[C@@H](CCCN=C(N)N)C(=O)N[C@@H](Cc1ccc(O)cc1)C(=O)N[C@@H](CCCN=C(N)N)C(=O)N[C@@H](CCCN=C(N)N)C(=O)N[C@@H](Cc1c[nH]c2ccccc12)C(=O)N[C@@H](Cc1ccc(O)cc1)C(=O)O [IWWAKWGLKLLRYRRWY]
- MIC [35]: 1 µM (≈ 2.39 µg/mL)
- MIC [36]: 4 µM (≈ 9.58 µg/mL)

SMILES: CC[C@H](C)[C@H](N)C(=O)N[C@@H](Cc1c[nH]c2ccccc12)C(=O)N[C@@H](Cc1c[nH]c2ccccc12)C(=O)N[C@@H](C)C(=O)N[C@@H](CCCCN)C(=O)N[C@@H](Cc1c[nH]c2ccccc12)C(=O)NCC(=O)N[C@@H](CC(C)C)C(=O)N[C@@H](CCCCN)C(=O)N[C@@H](Cc1c[nH]c2ccccc12)C(=O)N[C@@H](CC(C)C)C(=O)N[C@@H](CCCN=C(N)N)C(=O)N[C@@H](Cc1ccc(O)cc1)C(=O)N[C@@H](CCCN=C(N)N)C(=O)N[C@@H](CCCN=C(N)N)C(=O)N[C@H](C(=O)N[C@@H](Cc1ccc(O)cc1)C(=O)O)[C@@H](C)CC [IWWAKWGLKWLRYRRIY]
- MIC [35]: 2 µM (≈ 4.79 µg/mL)
- MIC [36]: 16 µM (≈ 38.3 µg/mL)

SMILES: CC(C)C[C@H](NC(=O)[C@H](C)NC(=O)CNC(=O)[C@H](CC(C)C)NC(=O)[C@@H](N)CCCCN)C(=O)N[C@@H](Cc1c[nH]c2ccccc12)C(=O)N[C@@H](CC(N)=O)C(=O)N[C@H](C(=O)N[C@@H](C)C(=O)N[C@@H](CCCCN)C(=O)N[C@@H](CO)C(=O)N[C@H](C(=O)N[C@@H](Cc1ccccc1)C(N)=O)C(C)C)C(C)C [KLGALWNVAKSVF]
- MIC [1]: 6.3 µM (≈ 9.02 µg/mL)
- MIC [3]: 3.1 µM (≈ 4.44 µg/mL)
- MIC [4]: 6.3 µM (≈ 9.02 µg/mL)
- MIC [5]: ≥ 50 µM
- MIC [6]: ≥ 50 µM
- MIC [7]: 6.3 µM (≈ 9.02 µg/mL)
- MIC [9]: 6.3 µM (≈ 9.02 µg/mL)
- MIC [10]: 50 µM (≈ 71.6 µg/mL)
- MIC [34]: > 50 µM
